# Experimental data published in patent US20060247320A1, “Compounds for inhibiting KSP kinesin activity” (priority 2005, published 2006).
# Target: T1, KSP motor domain (Homo sapiens, UniProt P52732)
# T1 sequence (P52732 18-359 limits assumed): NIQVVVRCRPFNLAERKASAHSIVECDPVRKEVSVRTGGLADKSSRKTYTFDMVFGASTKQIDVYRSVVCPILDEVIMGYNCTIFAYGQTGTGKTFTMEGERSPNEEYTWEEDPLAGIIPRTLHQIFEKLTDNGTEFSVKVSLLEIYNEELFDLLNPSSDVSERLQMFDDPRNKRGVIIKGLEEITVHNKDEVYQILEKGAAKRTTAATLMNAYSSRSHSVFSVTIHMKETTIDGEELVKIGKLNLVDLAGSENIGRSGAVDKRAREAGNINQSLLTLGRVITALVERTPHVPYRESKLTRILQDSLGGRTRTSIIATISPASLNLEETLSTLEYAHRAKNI
# Assay: biochemical
# Settings: IC50 (nM), KSP inhibitory activity, end-point assay; class symbols (Table 1)
row,Compound,IC50
1,"C[Si](C)(C)C1CCc2nc3sc(C(N)=O)cc3cc2C1 (single isomer, unassigned) [Example 189, 5,6,8-Tetrahydro-6-(Trimethylsilyl)thieno[2,3-b]quinoline-2-Carboxamide]",< 100 nM

# Same assay, conditions: IC50 (nM), exact IC50 values, end-point assay (Table 2)
row,Compound,IC50
1,"C[Si](C)(C)C1CCc2nc3sc(C(N)=O)cc3cc2C1 (single isomer, unassigned) [Example 189, 5,6,8-Tetrahydro-6-(Trimethylsilyl)thieno[2,3-b]quinoline-2-Carboxamide]",50 nM

# Same assay, conditions: KSP inhibitory activity, end-point assay; class symbols (Table 1)
row,Compound,IC50 (nM)
1,"CC(C)(C)C1CCc2nc3sc(C(=N)N)cc3cc2C1 (centres unmarked) [Example 69, 6-tert-butyl-5,6,7,8-tetrahydrothieno[2,3-b]quinoline-2-carboxamidine]",B/C
2,CC(C)(C)C1CCc2nc3sc(C(=O)NCC(N)=O)cc3cc2C1 (centres unmarked) [Example 81],A/B

# Same assay, conditions: KSP inhibitory activity, end-point assay; class symbols (Table 1); read-out: IC50
row,Compound,IC50
1,"CC(C)(C)C1CCc2nc3sc(C#N)cc3cc2C1 (racemic) [Example 58, 6-tert-butyl-5,6,7,8-tetrahydrothieno[2,3-b]quinoline-2-carbonitrile]",100 to 1000 nM
2,"CC(C)(C)C1CCc2nc3sc(C#N)cc3cc2C1 (single isomer, unassigned) [Example 62]",100 to 1000 nM
3,"CC(C)(C)C1CCc2nc3sc(C#N)cc3cc2C1 (single isomer, unassigned) [Example 63]",< 100 nM
4,"CC(C)(C)C1CCc2nc3sc(C(N)=O)cc3cc2C1 (single isomer, unassigned; (+)) [Example 68, (+)-6-(1,1-dimethylethyl)-5,6,7,8-tetrahydrothieno[2,3-b]quinoline-2-carboxamide]",< 100 nM
5,"CC(C)(C)C1CCc2nc3sc(C(N)=O)cc3cc2C1 (single isomer, unassigned; (-)) [Example 67, (−)-6-(1,1-dimethylethyl)-5,6,7,8-tetrahydrothieno[2,3-b]quinoline-2-carboxamide]",100 to 1000 nM
6,"CC(CO)NC(=O)c1sc2nc3c(cc2c1N)CC(C(C)(C)C)CC3 (stereo in doubt) [Example 192, 3-Amino-6-(1,1-Dimethylethyl)-5,6,7,8-Tetrahydro-N-(2-Hydroxy-1(S)-Methylethyl)thieno[2,3-b]quinoline-2-Carboxamide]",1000 to 10000 nM
7,"CC(C)C1CCc2nc3sc(C#N)c(N)c3cc2C1 (centres unmarked) [Example 1, 3-amino-6-isopropyl-5,6,7,8-tetrahydrothieno[2,3-b]quinoline-2-carbonitrile]",1000 to 10000 nM
8,N#Cc1sc2nc3c(cc2c1N)CC(c1ccccc1)CC3 (centres unmarked) [Example 3],> 10000 nM
9,N#Cc1sc2nc3c(cc2c1N)CC(C12CC4CC(CC(C4)C1)C2)CC3 (centres unmarked) [Example 4],> 10000 nM
10,CCC(CC)(CC)C1CCc2nc3sc(C#N)c(N)c3cc2C1 (centres unmarked) [Example 5],1000 to 10000 nM
11,CC1(C2CCc3nc4sc(C#N)c(N)c4cc3C2)CCCC1 (centres unmarked) [Example 6],100 to 1000 nM
12,CC(C)C(C)(C)C1CCc2nc3sc(C#N)c(N)c3cc2C1 (centres unmarked) [Example 7],> 10000 nM
13,CC(C)CC(C)(C)C1CCc2nc3sc(C#N)c(N)c3cc2C1 (centres unmarked) [Example 8],> 10000 nM
14,CC(C)(C)C(C)(C)C1CCc2nc3sc(C#N)c(N)c3cc2C1 (centres unmarked) [Example 9],1000 to 10000 nM
15,CCCC(C)(C)C1CCc2nc3sc(C#N)c(N)c3cc2C1 (centres unmarked) [Example 10],100 to 1000 nM
16,CC(C)(C)CC(C)(C)C1CCc2nc3sc(C#N)c(N)c3cc2C1 (centres unmarked) [Example 11],> 10000 nM
17,CCC(C)(C)C1CCc2nc3sc(C#N)c(N)c3cc2C1 (centres unmarked) [Example 12],< 100 nM
18,CC1CCc2nc3sc(C#N)c(N)c3cc2C1 (centres unmarked) [Example 13],> 10000 nM
19,N#Cc1sc2nc3c(cc2c1N)CC(C(F)(F)F)CC3 (centres unmarked) [Example 14],1000 to 10000 nM
20,CCCC1CCc2nc3sc(C#N)c(N)c3cc2C1 (centres unmarked) [Example 15],1000 to 10000 nM
21,CCCC1(CCC)CCc2nc3sc(C#N)c(N)c3cc2C1 [Example 16],> 10000 nM
22,CCC1CCc2nc3sc(C#N)c(N)c3cc2C1 (centres unmarked) [Example 17],1000 to 10000 nM
23,N#Cc1sc2nc3c(cc2c1N)CC(C1CCCCC1)CC3 (centres unmarked) [Example 18],> 10000 nM
24,CCCCCC1CCc2nc3sc(C#N)c(N)c3cc2C1 (centres unmarked) [Example 19],> 10000 nM
25,CC(C)CCC1CCc2nc3sc(C#N)c(N)c3cc2C1 (centres unmarked) [Example 20],> 10000 nM
26,CCC(C)C1CCc2nc3sc(C#N)c(N)c3cc2C1 (centres unmarked) [Example 21],1000 to 10000 nM

row,Compound,IC50
1,N#Cc1sc2nc3c(cc2c1N)CC(C1CCCC1)CC3 (centres unmarked) [Example 22],> 10000 nM
2,CC(C1CCc2nc3sc(C#N)c(N)c3cc2C1)C(C)(C)C (centres unmarked) [Example 23],> 10000 nM
3,CC(C)C(C(C)C)C1CCc2nc3sc(C#N)c(N)c3cc2C1 (centres unmarked) [Example 24],1000 to 10000 nM
4,CC(C)(C)CC1CCc2nc3sc(C#N)c(N)c3cc2C1 (centres unmarked) [Example 25],100 to 1000 nM
5,CCC(CC)C1CCc2nc3sc(C#N)c(N)c3cc2C1 (centres unmarked) [Example 26],100 to 1000 nM
6,CC(C)CC1CCc2nc3sc(C#N)c(N)c3cc2C1 (centres unmarked) [Example 27],1000 to 10000 nM
7,CCC(C(C)C)C1CCc2nc3sc(C#N)c(N)c3cc2C1 (centres unmarked) [Example 28],100 to 1000 nM
8,CCC(C1CCc2nc3sc(C#N)c(N)c3cc2C1)C(C)(C)C (centres unmarked) [Example 29],> 10000 nM
9,CC(C)C(C)C1CCc2nc3sc(C#N)c(N)c3cc2C1 (centres unmarked) [Example 30],100 to 1000 nM
10,N#Cc1sc2nc3c(cc2c1N)CC(Cc1ccccc1)CC3 (centres unmarked) [Example 31],> 10000 nM
11,CCCCC1CCc2nc3sc(C#N)c(N)c3cc2C1 (centres unmarked) [Example 32],> 10000 nM
12,C/C=C/C=C1\CCc2nc3sc(C#N)c(N)c3cc2C1 [Example 35],> 10000 nM
13,CC(C)=C/C=C1\CCc2nc3sc(C#N)c(N)c3cc2C1 [Example 36],> 10000 nM
14,N#Cc1sc2nc3c(cc2c1N)C/C(=C/C1CC1)CC3 [Example 37],> 10000 nM
15,CCC(C)(C)C1Cc2cc3c(N)c(C#N)sc3nc2C1 (centres unmarked) [Example 38],1000 to 10000 nM
16,CC(C)(C)C1CCCc2nc3sc(C#N)c(N)c3cc2C1 (centres unmarked) [Example 40],< 100 nM
17,CC(C)(C)C1CCc2cc3c(N)c(C#N)sc3nc2CC1 (centres unmarked) [Example 41],1000 to 10000 nM
18,CC(C)(C)OC(=O)N1CCc2nc3sc(C#N)c(N)c3cc2C1 [Example 42],> 10000 nM
19,CC1(C2CCc3nc4sc(C#N)c(N)c4cc3C2)CC1 (centres unmarked) [Example 43],100 to 1000 nM
20,N#Cc1sc2nc3c(cc2c1N)CC1(CC3)OCCO1 [Example 44],> 10000 nM
21,N#Cc1sc2nc3c(cc2c1N)CCCC3 [Example 45],> 10000 nM
22,CC1Cc2nc3sc(C#N)c(N)c3cc2C(C)C1 (centres unmarked) [Example 46],> 10000 nM
23,CC1(C)CCc2nc3sc(C#N)c(N)c3cc2C1 [Example 47],> 10000 nM
24,CC1(C)Cc2nc3sc(C#N)c(N)c3cc2C(C)(C)C1 [Example 48],> 10000 nM
25,CCCC1CCc2cc3c(N)c(C#N)sc3nc2C1 (centres unmarked) [Example 49],> 10000 nM
26,N#Cc1sc2nc3c(cc2c1N)CCC(C(F)(F)F)C3 (centres unmarked) [Example 50],> 10000 nM

row,Compound,IC50
1,CC(C)C1CCc2cc3c(N)c(C#N)sc3nc2C1 (centres unmarked) [Example 51],> 10000 nM
2,CCCC1CCCc2cc3c(N)c(C#N)sc3nc21 (centres unmarked) [Example 52],> 10000 nM
3,N#Cc1sc2nc3c(cc2c1N)CC(=O)CC3 [Example 53],> 10000 nM
4,CCC(C)(C)C1CCc2nc3sc(C#N)c(N)c3c(SC)c2C1 (centres unmarked) [Example 54],> 10000 nM
5,N#Cc1sc2nc3c(cc2c1N)CN(CC1CC1)CC3 [Example 55],> 10000 nM
6,N#Cc1sc2nc3c(cc2c1N)CN(Cc1ccccc1)CC3 [Example 56],> 10000 nM
7,N#Cc1sc2nc3c(cc2c1N)CN(CCC(F)(F)F)CC3 [Example 57],> 10000 nM
8,CCC(C)(C)C1CCc2nc3sc(C#N)cc3cc2C1 (centres unmarked) [Example 59],< 100 nM
9,CC(C)(C)C1CCCc2nc3sc(C#N)cc3cc2C1 (centres unmarked) [Example 60],< 100 nM
10,CC(C)(C)C1CCc2cc3cc(C#N)sc3nc2CC1 (centres unmarked) [Example 61],1000 to 10000 nM
11,"CC(C)(C)C1CCc2nc3sc(C(N)=O)cc3cc2C1 (centres unmarked) [Example 64, 6-tert-butyl-5,6,7,8-tetrahydrothieno[2,3-b]quinoline-2-carboxylic acid amide]",< 100 nM
12,CC(C)(C)C1CCCc2nc3sc(C(N)=O)cc3cc2C1 (centres unmarked) [Example 65],< 100 nM
13,CC(C)(C)C1CCc2cc3cc(C(N)=O)sc3nc2CC1 (centres unmarked) [Example 66],1000 to 10000 nM
14,"CC(C)(C)C1CCc2nc3sc(C(N)=S)cc3cc2C1 (centres unmarked) [Example 70, 6-tert-butyl-5,6,7,8-tetrahydrothieno[2,3-b]quinoline-2-carbothioic acid amide]",100 to 1000 nM
15,CCC(C)(C)C1CCc2c(cc3cc(C#N)sc3[n+]2[O-])C1 (centres unmarked) [Example 71],1000 to 10000 nM
16,CCC(C)(C)C1CCc2nc3sc(-c4nn[nH]n4)cc3cc2C1 (centres unmarked) [Example 72],1000 to 10000 nM
17,"CC(C)(C)C1CCc2nc3sc(C(=O)O)cc3cc2C1 (centres unmarked) [Example 73, 6-tert-Butyl-5,6,7,8-tetrahydrothieno[2,3-b]quinoline-2-carboxylic acid]",> 10000 nM
18,CC(CO)NC(=O)c1cc2cc3c(nc2s1)CCC(C(C)(C)C)C3 (centres unmarked) [Example 76],1000 to 10000 nM
19,CC(C)(C)C1CCc2nc3sc(C(=O)Nc4ccccc4)cc3cc2C1 (centres unmarked) [Example 77],> 10000 nM
20,CC(C)(C)C1CCc2nc3sc(C(=O)NCc4ccccc4)cc3cc2C1 (centres unmarked) [Example 78],> 10000 nM
21,CCNC(=O)c1cc2cc3c(nc2s1)CCC(C(C)(C)C)C3 (centres unmarked) [Example 79],1000 to 10000 nM
22,CN(C)C(=O)c1cc2cc3c(nc2s1)CCC(C(C)(C)C)C3 (centres unmarked) [Example 80],> 10000 nM
23,CC(CO)NC(=O)c1cc2cc3c(nc2s1)CCC(C(C)(C)C)C3 (centres unmarked) [Example 82],1000 to 10000 nM
24,CC(CO)NC(=O)c1cc2cc3c(nc2s1)CCC(C(C)(C)C)C3 (centres unmarked) [Example 83],100 to 1000 nM

# Same assay, conditions: exact IC50 values, end-point assay (Table 2); read-out: IC50
row,Compound,IC50
1,"CC(C)(C)C1CCc2nc3sc(C#N)cc3cc2C1 (single isomer, unassigned) [Example 63]",40 nM
2,"CC(C)(C)C1CCc2nc3sc(C(N)=O)cc3cc2C1 (single isomer, unassigned; (+)) [Example 68, (+)-6-(1,1-dimethylethyl)-5,6,7,8-tetrahydrothieno[2,3-b]quinoline-2-carboxamide]",20 nM
3,CC(C)(C)C1CCCc2nc3sc(C#N)c(N)c3cc2C1 (centres unmarked) [Example 40],60 nM
4,CCC(C)(C)C1CCc2nc3sc(C#N)cc3cc2C1 (centres unmarked) [Example 59],55 nM
5,CC(C)(C)C1CCCc2nc3sc(C(N)=O)cc3cc2C1 (centres unmarked) [Example 65],62 nM

# Same assay, conditions: number printed in brackets under a borderline class (A/B, B/C) in Table 1 of b1103; read-out: IC50
row,Compound,IC50
1,CC(C)(C)C1CCc2nc3sc(C(=O)NCC(N)=O)cc3cc2C1 (centres unmarked) [Example 81],100 nM
